Source: patent US20230077723A1, “N-SUBSTITUTED-3,4-(FUSED 5-RING)-5-PHENYL-PYRROLIDINE-2-ONE COMPOUNDS AS INHIBITORS OF ISOQC AND/OR QC ENZYME” (Scenic Immunology B.V., priority 2019, published 2023)

Legend:
[1] = test system: pyroglutamylated CD47 (pE-CD47) in KBM7 cells; assay: Assay 6 - cell-based potency assay (pE-CD47 CC2C6 staining vs total CD47); set-up: species or system human; conditions: Homo sapiens, KBM-7, 72 h, CC2C6 signal, read-out: Cell Pot. Assay No. 6
Protocol: Cells were spun for 4 minutes at 1500 rpm and washed once with PBS/0.5% BSA. Cells were spun down again and the supernatant was removed and incubated in 100 uL antibody staining solution (PBS/0.5% BSA/0.1 μg/mL DAPI (4′,6-diamidino-2-phenylindole, ThermoFisher Scientific) and a mixture of 1:500 FITC-conjugated anti-human CD47 clone 2D3, which recognizes total CD47 irrespective of its pyroglutamylation state, and 1:500 Alexa647-conjugated anti-human CD47 clone CC2C6, which specifically detects pyroglutamylated CD47) for 2 hours at 4° C. Next, the cells were spun down and washed twice with 2×150 μL PBS/0.5% BSA to remove unbound antibody. Cells were again spun down and taken up in 300 μL FACS buffer before analysis on a Celesta FACS machine (BD Biosciences).
KBM7 cells (Kotecki et al., 1999) were infected with lentivirus produced by transfecting pSCNC-LentiCRISPR-QPCTL or pSCNC-LentiCRISPR-CD47 into HEK-293T cells according to standard protocols. After 24 hours incubation, cells were selected with puromycin (Invivogen, 1 μg/mL) for 48 hours. Cells were stained for total CD47 and pE-CD47 and QPCTL k.o. cells were sorted out as negative for pE-CD47, and CD47 k.o. cells as negative for total CD47, using a FACSAria III and FACS Diva software (BD Biosciences).
In order to test compounds for their effect on pyroglutamylation in live cells, 25000 KBM7 cells per well were seeded in a 96-well U-bottom plate in 150 μl IMDM/10% FCS/1% Pen/Strep medium and a 10-point 2-fold dilution range of test compounds. After 72 hours incubation at 37° C., 5% CO2, cells were stained for total CD47 and pE-CD47 and analyzed on a BD Celesta using FACS Diva software (BD Biosciences). Cells gated for DAPI negativity were recorded and the median fluorescence intensity (MFI) of each sample was transformed to linearly scale between the MFI's of wildtype and CD47 knockout cells (in case of the 2D3 antibody) and the wildtype and QPCTL knockout cells (in case of the CC2C6 antibody). IC50's were calculated by 3 parameter logistic regression of the CC2C6 signal vs. compound concentration, where the top of the sigmoidal curve was fixed at 1, using R and the drc package (http://www.r-project.org, https://cran.r-project.org/web/packages/drc/index.html).

human isoQC (S53-L382) [2] = molecular target: T1, human isoQC (S53-L382) (Homo sapiens, UniProt Q9NXS2); assay: Assay 1 - isoQC inhibition, fluorescent enzymatic assay (single concentration); format: biochemical; conditions: isoQC inhibition at 250 nM test compound; read-out: isoQc Inh. Assay No. 1
T1 construct: enzymatically active region of human isoQC (S53-L382; see, e.g., Huang et al., 2011); GST-Enterokinase site (N, cleaved yes); made in house; host or cells: E. coli
T1 sequence (Q9NXS2 53-382): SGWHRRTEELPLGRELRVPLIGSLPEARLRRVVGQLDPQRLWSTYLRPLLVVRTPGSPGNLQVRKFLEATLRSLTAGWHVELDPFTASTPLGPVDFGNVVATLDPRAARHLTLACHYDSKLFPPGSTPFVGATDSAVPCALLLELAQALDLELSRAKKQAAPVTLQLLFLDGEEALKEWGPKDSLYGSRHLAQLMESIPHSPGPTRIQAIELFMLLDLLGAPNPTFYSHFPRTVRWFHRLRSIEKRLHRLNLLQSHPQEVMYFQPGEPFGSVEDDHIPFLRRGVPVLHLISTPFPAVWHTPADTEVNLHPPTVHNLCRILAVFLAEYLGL
Protocol: Initially, isoQC inhibitory activity was measured at a single concentration in a fluorescent-based assay (Assay 1 below). In order to establish the inhibitory activity more quantitatively, IC50 values were obtained using a mass spectrometry-based assay where pyroglutamylation by either isoQC or QC was measured (Assays 2 and 4, respectively, below). Alternatively, IC50 values for isoQC or QC were obtained using a fluorescence-based assay (Assays 3 and 5 respectively, below).
(§1) The Golgi luminal, enzymatically active region of human isoQC (S53-L382; see, e.g., Huang et al., 2011) was obtained by expression in E. coli of an N-terminally GST-Enterokinase and C-terminally 6×His tagged construct in the pET41(+) vector and subsequent purification using talon beads and GST beads, enterokinase digestion and further purification with a final formulation in 25 mM Tris pH 8.0/150 mM NaCl/1 mM TCEP. Absence of pyroglutamylating activity in an enzymatic dead variant that was cloned, expressed, and purified in parallel ruled out that the purification strategy isolates any endogenously present pyroglutamylating activity.
Pyroglutamylation was measured by conversion of glutamine-4-amino-7-methylcoumarine (H-Gln-AMC, Bachem) to pyroglutamyl-AMC, which is subsequently a specific substrate for pyroglutamylaminopeptidase (pGAPase, Qiagen), releasing free AMC which can be fluorescently detected. For a typical inhibition assay, 15 μL 20 μM h-Gln-AMC (diluted from a 40 mM stock dissolved in 25 mM HEPES using 50 mM Tris-HCl pH 8.0) was pipetted into a 96-well plate on ice. Next, 7.5 μL 1 μM test compound (diluted from a 10 mM stock dissolved in DMSO using 50 mM Tris-HCl) was added. Finally, 7.5 μL, 3 ng/μL recombinant isoQC enzyme was added and the reaction mixture was incubated for 1 hour at 37° C. A 5 minute incubation at 98° C. was then performed to denature the isoQC enzyme and stop the reaction.
To detect the amount of pyroglutamyl-AMC formed, a 96-well plate was prepared with 25 μL 0.125 U/mL pGAPase enzyme diluted in 50 mM Tris-HCl pH 8.0 containing 10 mM dithiothreitol (DTT). 25 μL of the pyroglutamylation reaction mixture was transferred into the plate containing the pGAPase solutions while on ice. Once done, the plate was moved over to a Spectramax ID3 fluorescent plate-reader to monitor and record the maximum fluorescence at 380 nm excitation/450 nm emission over a period of 20 minutes while keeping the temperature at 37° C.
DMSO concentrations during the assay never exceeded 1% and activities were compared to controls containing only the same amount of DMSO and no test compound. […] Test compounds were reported as active when <40% of background corrected signal was measured as compared to DMSO controls.

human isoQC (S53-L382) [3] = molecular target: T1, human isoQC (S53-L382); assay: Assay 2 - isoQC potency, mass spectrometry-based enzymatic potency assay; format: biochemical; conditions: mass spectrometry read-out, 7.5 nM isoQC, 10 μM H-Gln-AMC; read-out: isoQc Pot. Assay No. 2
Protocol: as §1
(§2) EC50's of test compounds were determined by incubating 11-point two-fold dilutions of test compound in 20 μL volumes in the presence of 7.5 nM isoQC and 10 μM H-Gln-AMC using 50 mM Tris-HCl pH 8.0 as assay buffer for 2 hours at room temperature before stopping the reaction by the addition of 2 volumes of methanol. Both the substrate and the product of this reaction were read out using an Agilent RapidFire microfluidic solid phase sample extraction system coupled to an AB Sciex API 4000 triple quadrupole mass spectrometer, in negative ion mode, at m/z of 301.9 and 284.9 respectively. The actual readout was defined as P/(S+P), where P is the product signal area and S the substrate signal area. EC50's were calculated by four parameter sigmoidal model fitting.

recombinant human QC = molecular target: T2, recombinant human QC (Homo sapiens, UniProt Q16769); assay: Assay 4 - QC potency, mass spectrometry-based enzymatic potency assay; format: biochemical; conditions: mass spectrometry read-out; read-out: QC Pot. Assay No. 4
T2 construct: His6 (N); purchased R&D Systems
T2 sequence (Q16769 29-361): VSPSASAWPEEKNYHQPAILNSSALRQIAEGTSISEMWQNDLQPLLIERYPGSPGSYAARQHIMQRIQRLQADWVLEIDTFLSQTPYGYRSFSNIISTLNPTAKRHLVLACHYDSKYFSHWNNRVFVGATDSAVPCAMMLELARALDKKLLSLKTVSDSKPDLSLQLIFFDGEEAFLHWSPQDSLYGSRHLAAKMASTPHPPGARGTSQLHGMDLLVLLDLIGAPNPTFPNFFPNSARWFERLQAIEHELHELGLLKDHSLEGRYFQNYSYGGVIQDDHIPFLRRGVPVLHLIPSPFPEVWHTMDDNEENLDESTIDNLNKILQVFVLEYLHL
Protocol: as §2
EC50's of test compounds were determined in the same way as described in Assay 2 above, except that N-terminally His6-tagged recombinant human QC (R&D Systems) was used instead of isoQC.

IC50 [1] [nM] | inhibition at 0.25 µM (human isoQC (S53-L382) [2]) [%] | IC50 (human isoQC (S53-L382) [3]) [nM] | IC50 (recombinant human QC) [nM] | SMILES
≥ 50000 | > 40 | 25 to 100 | 100 to 5000 | Cc1c2c(nn1C)C(=O)N(c1ccc3[nH]cnc3c1)C2c1ccc(N2CCCCCC2=O)cc1 (stereo not shown) [FRPPO-011]
< 1000 | > 40 | < 25 | 25 to 100 | Cc1c2c(nn1C)C(=O)N(c1ccc3[nH]cnc3c1)C2c1cccc(F)c1F (stereo not shown) [FRPPO-012]
1000 to 5000 | > 40 | 25 to 100 | 25 to 100 | Cc1c2c(nn1C)C(=O)N(c1ccc3[nH]cnc3c1)C2c1cc(F)cc(F)c1F (stereo not shown) [FRPPO-013]
1000 to 5000 | > 40 | < 25 | 25 to 100 | Cc1c2c(nn1C)C(=O)N(c1ccc3[nH]cnc3c1)C2c1ccc(-c2ccccn2)cc1 (stereo not shown) [FRPPO-014]
5000 to 50000 | > 40 | < 25 | 25 to 100 | Cc1c2c(nn1C)C(=O)N(c1ccc3[nH]cnc3c1)C2c1ccc(N2CCCC2=O)cc1 (stereo not shown) [FRPPO-016]
≥ 50000 | > 40 | 25 to 100 | 25 to 100 | Cc1c2c(nn1C)C(=O)N(c1ccc3[nH]cnc3c1)C2c1ccc(N2CCCCC2=O)cc1 (stereo not shown) [FRPPO-017]
5000 to 50000 | > 40 | < 25 | < 25 | COc1ccc(C2c3c(nn(C)c3C)C(=O)N2c2ccc3[nH]cnc3c2)cc1O (stereo not shown) [FRPPO-018]
< 1000 | > 40 | 25 to 100 | < 25 | Cc1c2c(nn1C)C(=O)N(c1ccc3[nH]cnc3c1)C2c1ccc(OCC(C)(F)F)c(F)c1F (stereo not shown) [FRPPO-019]
1000 to 5000 | > 40 | < 25 | 25 to 100 | Cc1c2c(nn1C)C(=O)N(c1ccc3[nH]cnc3c1)C2c1ccc2nsnc2c1 (stereo not shown) [FRPPO-020]
5000 to 50000 | > 40 | < 25 | 25 to 100 | Cc1c2c(nn1C)C(=O)N(c1ccc3[nH]cnc3c1)C2c1ccc(Oc2cnn(C)c2)cc1 (stereo not shown) [FRPPO-025]
1000 to 5000 | > 40 | < 25 | < 25 | Cc1c2c(nn1C)C(=O)N(c1ccc3[nH]cnc3c1)C2c1ccc(N2CCS(=O)(=O)CC2)cc1 (stereo not shown) [FRPPO-027]
< 1000 | > 40 | < 25 | 25 to 100 | Cc1c2c(nn1C)C(=O)N(c1ccc3[nH]cnc3c1)C2c1ccc(N2CCC(F)(F)C2)cc1F (stereo not shown) [FRPPO-028A]
< 1000 | > 40 | 25 to 100 | 100 to 5000 | CCCOc1ccc(C2c3c(nn(CC)c3C)C(=O)N2c2ccc3[nH]cnc3c2)cc1 (stereo not shown) [FRPPO-029]
1000 to 5000 | > 40 | 100 to 5000 | 100 to 5000 | CCCOc1ccc(C2c3c(nn(C(C)C)c3C)C(=O)N2c2ccc3[nH]cnc3c2)cc1 (stereo not shown) [FRPPO-030]
1000 to 5000 | > 40 | 25 to 100 | 100 to 5000 | CCCOc1ccc(C2c3c(nn(COC)c3C)C(=O)N2c2ccc3[nH]cnc3c2)cc1 (stereo not shown) [FRPPO-031]
1000 to 5000 | ≤ 40 | 100 to 5000 | 100 to 5000 | CCCOc1ccc(C2c3c(nn(CC(F)F)c3C)C(=O)N2c2ccc3[nH]cnc3c2)cc1 (stereo not shown) [FRPPO-032]
1000 to 5000 | > 40 | 100 to 5000 | 100 to 5000 | CCCOc1ccc(C2c3c(nn(C4CCC4)c3C)C(=O)N2c2ccc3[nH]cnc3c2)cc1 (stereo not shown) [FRPPO-033]
1000 to 5000 | > 40 | 100 to 5000 | 100 to 5000 | CCCOc1ccc(C2c3c(nn(CC4CC4)c3C)C(=O)N2c2ccc3[nH]cnc3c2)cc1 (stereo not shown) [FRPPO-034]
1000 to 5000 | > 40 | 100 to 5000 | 100 to 5000 | CCCOc1ccc(C2c3c(nn(C4CCOCC4)c3C)C(=O)N2c2ccc3[nH]cnc3c2)cc1 (stereo not shown) [FRPPO-035]
